From ChEMBL document CHEMBL4602614, “Design, synthesis and cholinesterase inhibitory activity of novel spiropyrrolidine tethered imidazole heterocyclic hybrids” (Bioorg Med Chem Lett, 2020)

How the values were obtained:
[1] = molecular target: Acetylcholinesterase (Homo sapiens, UniProt P22303); assay: Inhibition of AChE (unknown origin)
[2] = molecular target: Cholinesterase (Homo sapiens, UniProt P06276); assay: Inhibition of BChE (unknown origin)
Cholinesterase, sequence (P06276 whole entry): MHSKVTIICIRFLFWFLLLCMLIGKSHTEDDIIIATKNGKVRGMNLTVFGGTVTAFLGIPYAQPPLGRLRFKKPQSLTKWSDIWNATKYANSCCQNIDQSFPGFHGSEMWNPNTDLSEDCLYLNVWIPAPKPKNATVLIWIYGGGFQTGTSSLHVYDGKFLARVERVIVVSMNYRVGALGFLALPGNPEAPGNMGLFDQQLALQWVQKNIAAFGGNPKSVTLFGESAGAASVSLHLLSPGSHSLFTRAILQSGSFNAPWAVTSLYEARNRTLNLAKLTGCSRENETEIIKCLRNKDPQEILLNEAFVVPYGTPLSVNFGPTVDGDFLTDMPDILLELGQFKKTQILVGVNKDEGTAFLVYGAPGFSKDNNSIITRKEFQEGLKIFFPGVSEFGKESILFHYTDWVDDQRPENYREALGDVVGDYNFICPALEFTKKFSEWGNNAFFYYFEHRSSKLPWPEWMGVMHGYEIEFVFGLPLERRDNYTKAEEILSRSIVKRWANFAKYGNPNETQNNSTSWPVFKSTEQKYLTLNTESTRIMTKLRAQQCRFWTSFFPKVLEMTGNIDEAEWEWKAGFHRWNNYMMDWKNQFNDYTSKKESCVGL

Acetylcholinesterase, sequence (P22303 whole entry): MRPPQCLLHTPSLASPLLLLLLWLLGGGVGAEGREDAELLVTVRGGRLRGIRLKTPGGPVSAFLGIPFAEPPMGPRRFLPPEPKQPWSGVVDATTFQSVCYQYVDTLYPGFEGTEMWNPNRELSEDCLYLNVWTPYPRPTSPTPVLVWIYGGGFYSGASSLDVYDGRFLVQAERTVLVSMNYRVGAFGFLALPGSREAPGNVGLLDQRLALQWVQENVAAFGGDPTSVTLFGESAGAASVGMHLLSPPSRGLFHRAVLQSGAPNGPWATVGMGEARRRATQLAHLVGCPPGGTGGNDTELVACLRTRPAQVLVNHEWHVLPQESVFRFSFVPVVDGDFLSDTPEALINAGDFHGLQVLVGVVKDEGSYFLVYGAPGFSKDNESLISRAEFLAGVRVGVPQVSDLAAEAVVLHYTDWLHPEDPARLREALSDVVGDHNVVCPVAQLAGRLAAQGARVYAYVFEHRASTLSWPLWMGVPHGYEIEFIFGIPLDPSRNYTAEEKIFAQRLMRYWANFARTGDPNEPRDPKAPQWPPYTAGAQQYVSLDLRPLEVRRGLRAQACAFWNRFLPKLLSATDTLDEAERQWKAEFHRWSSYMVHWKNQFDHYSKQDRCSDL

SMILES	IC50 [1]	IC50 [2]
O=[N+]([O-])C1C(Cc2c[nH]cn2)NC2(c3ccccc3-c3nc4ccccc4nc32)C1c1ccccc1 (configuration not stated)	11.8 µM	15.6 µM
O=[N+]([O-])C1C(Cc2c[nH]cn2)NC2(c3ccccc3-c3nc4ccccc4nc32)C1c1ccco1 (configuration not stated)	14.2 µM	22.3 µM
Cc1cccc(C2C([N+](=O)[O-])C(Cc3c[nH]cn3)NC23c2ccccc2-c2nc4ccccc4nc23)c1 (configuration not stated)	7.8 µM	13.6 µM
O=[N+]([O-])C1C(Cc2c[nH]cn2)NC2(c3ccccc3-c3nc4ccccc4nc32)C1c1ccccn1 (configuration not stated)	17 µM	24.3 µM
COc1cccc(C2C([N+](=O)[O-])C(Cc3c[nH]cn3)NC23c2ccccc2-c2nc4ccccc4nc23)c1 (configuration not stated)	9.2 µM	14.7 µM
Cc1ccc(C2C([N+](=O)[O-])C(Cc3c[nH]cn3)NC23c2ccccc2-c2nc4ccccc4nc23)cc1 (configuration not stated)	2.02 µM	12.4 µM
COc1ccc(C2C([N+](=O)[O-])C(Cc3c[nH]cn3)NC23c2ccccc2-c2nc4ccccc4nc23)cc1 (configuration not stated)	2.05 µM	11.5 µM
COc1ccccc1C1C([N+](=O)[O-])C(Cc2c[nH]cn2)NC12c1ccccc1-c1nc3ccccc3nc12 (configuration not stated)	5.22 µM	14.2 µM
Cc1ccccc1C1C([N+](=O)[O-])C(Cc2c[nH]cn2)NC12c1ccccc1-c1nc3ccccc3nc12 (configuration not stated)	10 µM	13.8 µM
O=[N+]([O-])C1C(Cc2c[nH]cn2)NC2(c3ccccc3-c3nc4ccccc4nc32)C1c1ccc(Cl)cc1 (configuration not stated)	18.2 µM	21.6 µM
O=[N+]([O-])C1C(Cc2c[nH]cn2)NC2(c3ccccc3-c3nc4ccccc4nc32)C1c1ccc(Br)cc1 (configuration not stated)	16.2 µM	26.6 µM
